From patent US11759455B2, “Substituted 1H-imidazo[4,5-b]pyridin-2(3H)-ones and their use as GLUN2B receptor modulators” (JANSSEN PHARMACEUTICA NV, priority 2016, dated 2023)
Read-outs that look alike come from different tables or passages of the source.

Target: T1, human GluN1/GluN2B NMDA receptors (Homo sapiens, UniProt Q05586+Q13224)
T1 construct: expressed in transfected cells
Assay: Cell-based calcium flux (FLIPR) assay on cloned human NR1/NR2B ion channels expressed in mammalian cells (standard and HTS buffer variants);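 further: stable Tet-On inducible cell line, Ca2+ influx triggered by glutamate at about EC40 plus 10 µM glycine, fluorescent dye read-out over 5 min, normalized to control wells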

[1] = standard assay buffer (0.5 mM MgCl2 dye loading; 137 mM NaCl, 4 mM KCl assay buffer), human GluN1/GluN2B cells, read-out: NR2B IC50 (μM) standard assay
[2] = standard assay buffer (0.5 mM MgCl2 in dye loading buffer; 137 mM NaCl, 4 mM KCl in assay buffer), human GluN1/GluN2B, read-out: NR2B IC50 (μM) standard assay

T1 sequence (Q13224 27-1484, other chains not shown): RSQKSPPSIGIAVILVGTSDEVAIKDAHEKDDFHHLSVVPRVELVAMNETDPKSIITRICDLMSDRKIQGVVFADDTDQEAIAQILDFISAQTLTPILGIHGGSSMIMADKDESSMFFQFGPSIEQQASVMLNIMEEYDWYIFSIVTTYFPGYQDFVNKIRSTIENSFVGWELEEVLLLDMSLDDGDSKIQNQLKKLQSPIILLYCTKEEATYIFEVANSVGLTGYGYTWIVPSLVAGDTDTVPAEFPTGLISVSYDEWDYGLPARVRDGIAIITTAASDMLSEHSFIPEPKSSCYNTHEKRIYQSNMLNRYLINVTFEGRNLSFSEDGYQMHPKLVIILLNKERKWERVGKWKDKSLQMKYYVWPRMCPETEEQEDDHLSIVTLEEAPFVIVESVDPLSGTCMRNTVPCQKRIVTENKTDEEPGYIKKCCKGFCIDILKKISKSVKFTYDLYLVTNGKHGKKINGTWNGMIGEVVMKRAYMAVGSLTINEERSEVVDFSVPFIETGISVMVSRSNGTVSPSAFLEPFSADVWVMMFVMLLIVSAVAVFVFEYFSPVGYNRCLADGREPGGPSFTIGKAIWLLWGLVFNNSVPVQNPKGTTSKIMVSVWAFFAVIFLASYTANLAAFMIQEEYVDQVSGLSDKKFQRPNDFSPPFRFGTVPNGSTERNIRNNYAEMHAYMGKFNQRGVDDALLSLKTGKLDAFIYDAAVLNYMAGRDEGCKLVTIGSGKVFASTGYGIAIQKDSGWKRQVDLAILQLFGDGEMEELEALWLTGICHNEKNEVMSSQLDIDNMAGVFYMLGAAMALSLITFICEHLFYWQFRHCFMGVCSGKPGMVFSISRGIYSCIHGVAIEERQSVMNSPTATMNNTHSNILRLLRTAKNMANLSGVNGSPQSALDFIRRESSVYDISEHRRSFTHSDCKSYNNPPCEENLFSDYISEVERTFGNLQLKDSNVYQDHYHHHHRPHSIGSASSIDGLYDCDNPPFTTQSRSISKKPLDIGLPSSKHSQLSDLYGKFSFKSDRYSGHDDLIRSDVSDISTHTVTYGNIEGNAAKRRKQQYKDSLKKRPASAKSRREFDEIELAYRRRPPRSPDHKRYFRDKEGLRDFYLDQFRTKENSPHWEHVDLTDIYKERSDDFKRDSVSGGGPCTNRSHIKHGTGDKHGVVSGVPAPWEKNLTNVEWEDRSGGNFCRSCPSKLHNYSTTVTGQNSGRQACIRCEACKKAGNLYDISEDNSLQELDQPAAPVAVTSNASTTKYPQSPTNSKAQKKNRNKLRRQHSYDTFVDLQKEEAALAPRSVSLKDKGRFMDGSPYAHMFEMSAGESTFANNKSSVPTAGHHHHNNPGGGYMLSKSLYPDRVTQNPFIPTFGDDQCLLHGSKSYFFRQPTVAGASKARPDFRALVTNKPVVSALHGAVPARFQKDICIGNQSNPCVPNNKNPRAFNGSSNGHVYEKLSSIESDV

Compound	IC50 [1] [µM]	also measured
[2H]c1c(-c2ccc(C(F)(F)F)s2)cnc2c1n(CC(=O)N1CCC1)c(=O)n2C [Example 120, 1-(2-(Azetidin-1-yl)-2-oxoethyl)-3-methyl-6-(5-(trifluoromethyl)thiophen-2-yl)-1,3-dihydro-2H-imidazo[4,5-b]pyridin-2-one-7-D]	0.01	
O=c1[nH]c2ncc(-c3cccc(C(F)(F)F)c3)cc2n1CC1CC1(F)F (racemic) [Example 225, (R/S)-1-[(2,2-Difluorocyclopropyl)methyl]-6-[3-(trifluoromethyl)phenyl]-3H-imidazo[4,5-b]pyridin-2-one]	0.4	
O=c1[nH]c2ncc(-c3cccc(C(F)(F)F)c3)cc2n1CC1CCCCO1 (racemic) [Example 218, (R/S)-1-(Tetrahydropyran-2-ylmethyl)-6-[3-(trifluoromethyl)phenyl]-3H-imidazo[4,5-b]pyridin-2-one]	0.552	
O=c1[nH]c2ncc(-c3ccc(F)c(C(F)(F)F)c3)cc2n1CC1CCN1 (racemic) [Example 267, (R/S)-1-(Azetidin-2-ylmethyl)-6-[4-fluoro-3-(trifluoromethyl)phenyl]-3H-imidazo[4,5-b]pyridin-2-one]	0.442	
Cn1c(=O)n(CC2CCO2)c2cc(-c3cccc(C(F)(F)F)c3F)cnc21 (racemic) [Example 396, (R/S)-6-[2-Fluoro-3-(trifluoromethyl)phenyl]-3-methyl-1-(oxetan-2-ylmethyl)imidazo[4,5-b]pyridin-2-one]		IC50 [2]: 0.135 µM
CCC(O)Cn1c(=O)[nH]c2ncc(-c3ccc(F)c(C)c3)cc21 (racemic) [Example 334, (R/S)-6-(4-Fluoro-3-methyl-phenyl)-1-(2-hydroxybutyl)-3H-imidazo[4,5-b]pyridin-2-one]		IC50 [2]: 0.031 µM
O=c1[nH]c2ncc(-c3cccc(C(F)(F)F)c3)cc2n1CC(O)C1CC1 (racemic) [Example 31, (R/S)-1-(2-Cyclopropyl-2-hydroxy-ethyl)-6-[3-(trifluoromethyl)phenyl]-3H-imidazo[4,5-b]pyridin-2-one]	0.151	
COc1ccc(-c2cnc3[nH]c(=O)n(CC(C)C)c3c2)cc1 [Example 604, 1-Isobutyl-6-(4-methoxyphenyl)-3H-imidazo[4,5-b]pyridin-2-one]		IC50 [2]: 1.82 µM
O=c1[nH]c2ncc(-c3cccc(C(F)(F)F)c3)cc2n1CC1CCO1 (single isomer, unassigned) [Example 223, (R*)-1-(Oxetan-2-ylmethyl)-6-[3-(trifluoromethyl)phenyl]-3H-imidazo[4,5-b]pyridin-2-one]	0.036	
O=c1[nH]c2ncc(-c3cccc(C(F)(F)F)c3F)cc2n1CC1CCN1 (racemic) [Example 264, (R/S)-1-(Azetidin-2-ylmethyl)-6-[2-fluoro-3-(trifluoromethyl)phenyl]-3H-imidazo[4,5-b]pyridin-2-one]	0.044	
[2H]C([2H])([2H])OCc1ccc(-c2cnc3c(c2)n(CC(=O)N2CC(F)C2)c(=O)n3C)s1 [Example 123, 1-[2-(3-Fluoroazetidin-1-yl)-2-oxo-ethyl]-3-methyl-6-[5-(trideuteriomethoxymethyl)-2-thienyl]imidazo[4,5-b]pyridin-2-one]	1.82	
[2H]C([2H])([2H])OCc1ccc(-c2cnc3c(c2)n(CC(=O)N(C)C)c(=O)n3C)s1 [Example 121, N,N-Dimethyl-2-[3-methyl-2-oxo-6-[5-(trideuteriomethoxymethyl)-2-thienyl]imidazo[4,5-b]pyridin-1-yl]acetamide]	2.96	
O=c1[nH]c2ncc(-c3cccc(C(F)(F)F)c3)cc2n1CC1CCN1 (racemic) [Example 263, (R/S)-1-(Azetidin-2-ylmethyl)-6-[3-(trifluoromethyl)phenyl]-3H-imidazo[4,5-b]pyridin-2-one]	0.063	
CC(C(=O)N1CCC1)n1c(=O)[nH]c2ncc(-c3cccc(C(F)(F)F)c3)cc21 (racemic) [Example 203, (R/S)-1-[2-(Azetidin-1-yl)-1-methyl-2-oxo-ethyl]-6-[3-(trifluoromethyl)phenyl]-3H-imidazo[4,5-1D]pyridin-2-one]	1.1	
CCC(O)Cn1c(=O)[nH]c2ncc(-c3ccc(F)cc3C)cc21 (single isomer, unassigned) [Example 44, (S*)-6-(4-Fluoro-2-methyl-phenyl)-1-(2-hydroxybutyl)-3H-imidazo[4,5-b]pyridin-2-one]		IC50 (HTS assay buffer (1.5 mM MgCl2 dye loading; 150 mM NaCl, 3 mM KCl assay buffer), human GluN1/GluN2B cells, read-out: NR2B IC50 (μM) HTS assay): 0.325 µM
CCC(O)Cn1c(=O)n(C)c2ncc(-c3ccc(F)c(F)c3)cc21 (racemic) [Example 333, (R/S)-6-(3,4-Difluorophenyl)-1-(2-hydroxybutyl)-3-methyl-imidazo[4,5-b]pyridin-2-one]		IC50 [2]: 1.9 µM
Cn1c(=O)n(CC(=O)N2CC(F)C2)c2cc(-c3csc(C(F)(F)F)c3)cnc21 [Example 102, 1-[2-(3-Fluoroazetidin-1-yl)-2-oxo-ethyl]-3-methyl-6-[5-(trifluoromethyl)-3-thienyl]imidazo[4,5-b]pyridin-2-one]	0.018	
O=c1[nH]c2ncc(-c3cccc(C(F)(F)F)c3)cc2n1CC1CNCCO1 (racemic) [Example 217, (R/S)-1-(Morpholin-2-ylmethyl)-6-[3-(trifluoromethyl)phenyl]-3H-imidazo[4,5-b]pyridin-2-one]	6.49	
